From patent US9556201B2, “Bicyclic pyridines and analogs as sirtuin modulators” (GLAXOSMITHKLINE LLC, priority 2009, dated 2017)

Target: T1, SIRT1 (Homo sapiens, UniProt Q96EB6)
T1 sequence (Q96EB6 1-747): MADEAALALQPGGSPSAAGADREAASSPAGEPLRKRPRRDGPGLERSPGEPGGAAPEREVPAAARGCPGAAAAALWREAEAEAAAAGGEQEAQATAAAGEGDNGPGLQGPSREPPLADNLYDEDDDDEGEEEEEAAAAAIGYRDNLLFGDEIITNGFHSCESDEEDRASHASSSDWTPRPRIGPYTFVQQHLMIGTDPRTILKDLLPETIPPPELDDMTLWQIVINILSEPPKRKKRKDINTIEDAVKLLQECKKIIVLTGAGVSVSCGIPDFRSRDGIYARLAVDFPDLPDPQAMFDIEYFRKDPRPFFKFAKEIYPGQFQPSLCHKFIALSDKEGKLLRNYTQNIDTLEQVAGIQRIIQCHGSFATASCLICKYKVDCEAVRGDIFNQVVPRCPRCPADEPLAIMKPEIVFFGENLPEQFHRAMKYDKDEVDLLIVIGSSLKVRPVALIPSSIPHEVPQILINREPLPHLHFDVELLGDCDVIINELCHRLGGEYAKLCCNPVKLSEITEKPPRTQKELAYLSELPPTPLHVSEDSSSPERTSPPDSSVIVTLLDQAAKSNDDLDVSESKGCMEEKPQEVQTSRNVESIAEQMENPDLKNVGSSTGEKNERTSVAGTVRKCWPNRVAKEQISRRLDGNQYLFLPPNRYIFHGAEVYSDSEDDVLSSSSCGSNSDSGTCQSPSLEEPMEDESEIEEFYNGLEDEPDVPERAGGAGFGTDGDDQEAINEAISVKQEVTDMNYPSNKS
Experiment: Mass spectrometry based assay to identify modulators of SIRT1 activity (deacetylation of p53-based acetylated peptide substrate)
Assay type: biochemical
Settings: for Emax: 25 min, read-out: % FOLD ACT. (percent maximum fold activation); for Emax / EC1.5: SIRT1 activation
Description: A mass spectrometry based assay was used to identify modulators of SIRT1 activity. The mass spectrometry based assay utilizes a peptide having 20 amino acid residues as follows: Ac-EE-K(biotin)-GQSTSSHSK(Ac)NleSTEG-K(5TMR)-EE-NH2 (SEQ ID NO: 1) wherein K(Ac) is an acetylated lysine residue and Nle is a norleucine. The peptide is labeled with the fluorophore 5TMR (excitation 540 nm/emission 580 nm) at the C-terminus. The sequence of the peptide substrate is based on p53 with several modifications. In addition, the methionine residue naturally present in the sequence was replaced with the norleucine because the methionine may be susceptible to oxidation during synthesis and purification.
The mass spectrometry assay is conducted as follows: […] peptide substrate and 120 μM βNAD^+ is incubated with 10 nM SIRT1 for 25 minutes at 25° C. in a reaction buffer (50 mM Tris-acetate pH 8, 137 mM NaCl, 2.7 mM KCl, 1 mM MgCl2, 5 mM DTT, 0.05% BSA). Test compounds may be added to the reaction as described above. The SirT1 gene is cloned into a T7-promoter containing vector and transformed into BL21(DE3). After the 25 minute incubation with SIRT1, 10 μL of 10% formic acid is added to stop the reaction. Reactions are sealed and frozen for later mass spec analysis. Determination of the mass of the substrate peptide allows for precise determination of the degree of acetylation (i.e. starting material) as compared to deacetylated peptide (product).
A control for inhibition of sirtuin activity is conducted by adding 1 μL of 500 mM nicotinamide as a negative control at the start of the reaction (e.g., permits determination of maximum sirtuin inhibition). A control for activation of sirtuin activity is conducted using 10 nM of sirtuin protein, with 1 μL of DMSO in place of compound, to determine the amount of deacetylation of the substrate at a given timepoint within the linear range of the assay. This timepoint is the same as that used for test compounds and, within the linear range, the endpoint represents a change in velocity.
For the above assay, SIRT1 protein was expressed and purified as follows. The SirT1 gene was cloned into a T7-promoter containing vector and transformed into BL21(DE3). The protein was expressed by induction with 1 mM IPTG as an N-terminal His-tag fusion protein at 18° C. overnight and harvested at 30,000×g. Cells were lysed with lysozyme in lysis buffer (50 mM Tris-HCl, 2 mM Tris[2-carboxyethyl]phosphine (TCEP), 10 μM ZnCl2, 200 mM NaCl) and further treated with sonication for 10 min for complete lysis. The protein was purified over a Ni-NTA column (Amersham) and fractions containing pure protein were pooled, concentrated and run over a sizing column (Sephadex S200 26/60 global). The peak containing soluble protein was collected and run on an Ion-exchange column (MonoQ). Gradient elution (200 mM-500 mM NaCl) yielded pure protein. This protein was concentrated and dialyzed against dialysis buffer (20 mM Tris-HCl, 2 mM TCEP) overnight. The protein was aliquoted and frozen at −80° C. until further use.

Row | Structure (SMILES) | Emax [%] | EC1.5 | EC1.5 (concentration giving 1.5-fold activation) [µM]
1 | O=C(Nc1ccncc1)N1CCCc2ccc(-c3cccc(F)c3)nc21 [Compound 648] | > 200 | A (EC1.5<1.0 μM) | –
2 | O=C(Nc1ccccn1)N1CCCc2ccc(-c3cccc(F)c3)nc21 [Compound 649] | > 200 | A (EC1.5<1.0 μM) | –
3 | O=C(Nc1cccnc1)N1CCCc2ccc(-c3cccc(F)c3)nc21 [Compound 650] | > 200 | B (EC1.5 1-25 μM) | –
4 | O=C(Nc1ccncc1)N1CCCc2ccc(-c3cccc(Cl)c3)nc21 [Compound 651] | > 200 | A (EC1.5<1.0 μM) | –
5 | O=C(Nc1ccccn1)N1CCCc2ccc(-c3cccc(Cl)c3)nc21 [Compound 652] | > 200 | A (EC1.5<1.0 μM) | –
6 | Cc1cncc(NC(=O)N2CCCOc3ccc(-c4ccnc(C)c4)nc32)c1 [Compound 655] | ≤ 200 | B (EC1.5 1-25 μM) | –
7 | Cc1cc(-c2ccc3c(n2)N(C(=O)Nc2cc(C)nc(C)c2)CCCO3)ccn1 [Compound 657] | > 200 | B (EC1.5 1-25 μM) | –
8 | O=C(Nc1ncccn1)N1CCCc2ccc(-c3cccc(F)c3)nc21 [Compound 665] | > 200 | B (EC1.5 1-25 μM) | –
9 | O=C(Nc1ncccn1)N1CCCc2ccc(-c3cccc(C(F)(F)F)c3)nc21 [Compound 666] | > 200 | A (EC1.5<1.0 μM) | –
10 | O=C(Nc1ccncc1)N1CCOc2ccc(-c3ccccc3)nc21 [Compound 673] | > 200 | A (EC1.5<1.0 μM) | –
11 | Cc1cc(-c2ccc3c(n2)N(C(=O)Nc2nc(C)cs2)CCCO3)ccn1 [Compound 676] | > 200 | B (EC1.5 1-25 μM) | –
12 | O=C(Nc1cccc(OC[C@H](O)CO)n1)N1CCCc2ccc(-c3cccc(F)c3)nc21 [Compound 679] | > 200 | A (EC1.5<1.0 μM) | –
13 | Cc1ccc(-c2ccc3c(n2)N(C(=O)Nc2nc(C)cs2)CCCO3)cn1 [Compound 680] | > 200 | B (EC1.5 1-25 μM) | –
14 | Cc1ccc(-c2ccc3c(n2)N(C(=O)Nc2ccncn2)CCCO3)cn1 [Compound 681] | ≤ 200 | C (EC1.5>25 μM) | –
15 | Cc1cc(-c2cccc(Cl)c2)nc2c1OCCN2C(=O)Nc1ccncn1 [Compound 685] | > 200 | A (EC1.5<1.0 μM) | –
16 | Cc1ccc(-c2ccc3c(n2)N(C(=O)Nc2cccc(OC[C@H](O)CO)n2)CCO3)cn1 [Compound 694] | > 200 | B (EC1.5 1-25 μM) | –
17 | Cc1nc(NC(=O)N2CCCOc3ccc(-c4cccc(Cl)c4)nc32)sc1C [Compound 703] | > 200 | – | < 1
18 | Cc1cnc(NC(=O)N2CCCOc3ccc(-c4cccc(Cl)c4)nc32)s1 [Compound 704] | ≤ 200 | – | 1 to 25
19 | Cn1ccc(NC(=O)N2CCCOc3ccc(-c4cccc(Cl)c4)nc32)n1 [Compound 705] | > 200 | – | 1 to 25
20 | Cn1nccc1NC(=O)N1CCCOc2ccc(-c3cccc(Cl)c3)nc21 [Compound 706] | ≤ 200 | – | > 25
21 | Cc1csc(NC(=O)N2CCOc3cnc(-c4cccc(C(F)(F)F)c4)nc32)n1 [Compound 709, N-(4-methylthiazol-2-yl)-2-(3-(trifluoromethyl)phenyl)-6H-pyrimido[5,4-b][1,4]oxazine-8(7H)-carboxamide] | ≤ 200 | – | > 25
22 | Cc1cc(C)nc(NC(=O)N2CCOc3cnc(-c4cccc(C(F)(F)F)c4)nc32)c1 [Compound 712] | ≤ 200 | – | > 25
23 | O=C(Nc1ccncn1)N1CCOc2cnc(-c3cccc(C(F)(F)F)c3)nc21 [Compound 714] | ≤ 200 | – | 1 to 25
24 | Cc1cc(NC(=O)N2CCOc3c(N4CCCC4)nc(-c4cccc(F)c4)nc32)cc(C)n1 [Compound 718] | ≤ 200 | – | 1 to 25
25 | O=C1CCN(C(=O)Nc2ccncc2)c2nc(-c3cccc(C(F)(F)F)c3)ccc21 [Compound 719, 4-oxo-N-(pyridin-4-yl)-7-(3-(trifluoromethyl)phenyl)-3,4-dihydro-1,8-naphthyridine-1(2H)-carboxamide] | > 200 | – | 1 to 25
26 | O=C(Nc1ccncc1)N1CCOc2cnc(-c3cccc(Cl)c3)nc21 [Compound 720] | ≤ 200 | – | 1 to 25
27 | O=C(Nc1ccncc1)N1CCOc2cnc(-c3cccc(N4CCCC4)c3)nc21 [Compound 722] | > 200 | – | 1 to 25
28 | O=C(Nc1ccncc1)N1CCOc2ncc(-c3cccc(C(F)(F)F)c3)nc21 [Compound 723] | ≤ 200 | – | 1 to 25

Further lines, results first:

Row | Emax [%] | EC1.5 | EC1.5 (concentration giving 1.5-fold activation) [µM] | Structure (SMILES)
29 | > 200 | B (EC1.5 1-25 μM) | – | Cc1cc(NC(=O)N2CCCOc3ccc(-c4ccnc(C)c4)nc32)ccn1 [Compound 656]
30 | > 200 | B (EC1.5 1-25 μM) | – | O=C(Nc1ncccn1)N1CCCc2ccc(-c3cccc(Cl)c3)nc21 [Compound 667]
31 | > 200 | B (EC1.5 1-25 μM) | – | Cc1cc(-c2ccc3c(n2)N(C(=O)Nc2ccncn2)CCCO3)ccn1 [Compound 674]
32 | > 200 | B (EC1.5 1-25 μM) | – | CN(C)Cc1cccc(-c2ccc3c(n2)N(C(=O)Nc2cccnc2)CC(C)(C)O3)c1 [Compound 677, 6-(3-((dimethylamino)methyl)phenyl)-2,2-dimethyl-N-(pyridin-3-yl)-2H-pyrido[3,2-b][1,4]oxazine-4(3H)-carboxamide]
33 | > 200 | A (EC1.5<1.0 μM) | – | Cc1cc(-c2cccc(Cl)c2)nc2c1OCCN2C(=O)Nc1ccncc1 [Compound 686]
34 | > 200 | A (EC1.5<1.0 μM) | – | Cc1cc(-c2cccc(Cl)c2)nc2c1OCCN2C(=O)Nc1ccncc1F [Compound 687]
35 | ≤ 200 | C (EC1.5>25 μM) | – | O=C(Nc1c(F)c(F)c(F)c(F)c1F)N1CCCOc2ccc(-c3cccc(C(F)(F)F)c3)nc21 [Compound 693]
36 | ≤ 200 | – | 1 to 25 | Cc1cc(OCC(O)CO)nc(NC(=O)N2CCOc3ccc(-c4cccc(C(F)(F)F)c4)nc32)n1 (stereo not shown) [Compound 698]
37 | > 200 | – | < 1 | O=C(Nc1cccc(OC[C@H](O)CO)n1)N1CCCc2ccc(-c3ccc4c(c3)CCO4)nc21 [Compound 702]
38 | > 200 | – | 1 to 25 | Cn1cc(NC(=O)N2CCCOc3ccc(-c4cccc(Cl)c4)nc32)cn1 [Compound 708]
39 | ≤ 200 | – | 1 to 25 | O=C(Nc1ccncc1)N1CCOc2cnc(-c3cccc(C(F)(F)F)c3)nc21 [Compound 715]
40 | > 200 | – | 1 to 25 | O=C(Nc1ccncc1F)N1CCOc2cnc(-c3cccc(C(F)(F)F)c3)nc21 [Compound 716]
41 | > 200 | – | 1 to 25 | O=C(Nc1ccncc1)N1CCOc2cnc(-c3cccc(N4CCOCC4)c3)nc21 [Compound 721]
